13 molecules from patent publication US12295959B2 (priority 2021, dated 2025) can be followed below.

Test [1] has as its target T1, 5-HT2A (Homo sapiens, UniProt P28223). The experiment in a line: Serotonin 5-HT2A in vitro radioligand binding competition assay ([3H]-DOI). More on the design: purchased Epics Therapeutics S.A. (Belgium) FAST-0505B; host or cells: membrane extracts. The following applies: [3H]-DOI competition, membrane extracts. On the procedure: Serotonin 5-HT2A In Vitro Radioligand Binding Competition Assay. The 5-HT2A radioligand binding competition assay was performed at Epics Therapeutics S.A. (Belgium, FAST-0505B) using conventional methods. Briefly, competition binding was performed in duplicate in the wells of a 96 well plate (Master Block, Greiner, 786201) containing binding buffer (optimized for each receptor), membrane extracts (amount of protein/well optimized for each receptor), radiotracer [^3H]-DOI (final concentration optimized for each receptor) and test compound. Nonspecific binding was determined by co-incubation with 200-fold excess of cold competitor. The samples were incubated in a final volume of 0.1 ml at a temperature and for a duration optimized for each receptor and then filtered over filter plates. Filters were washed six times with 0.5 ml of ice-cold washing buffer (optimized for each receptor) and 50 μl of Microscint 20 (Packard) was added in each well. The plates were incubated 15 min on an orbital shaker and then counted with a TopCount™ for 1 min/well.

Test [2] concerns rat cortical neurons. The experiment in a line: Neurite outgrowth assay. In kind it is cell-based. More on the design: key: A: Statistically significant mean increase as a percent of DMSO control at 10 μM or less.; B: No statistically significant mean increase as a percent of DMSO control at 10 μM or less. The following applies: 72 h, 10 μM or less, vs DMSO control. An excerpt:
Neurite Outgrowth Assay. Changes in the pattern of neurite outgrowth have been implicated in psychiatric and neurodegenerative disorders as well as traumatic injuries. The discovery of new compounds that can positively affect neuritogenesis are important for developing new therapeutics for neurological diseases. Measurement of neurite outgrowth of rat cortical neurons using an automated image-based assay was used to determine the neuroplastic effects of the compounds of the present invention. The neurite outgrowth assay was performed at Neurofit SAS (France) as described below.
Pregnant Wistar rats (Janvier; France) were used for the study. They were delivered 6 days before their use. Upon arrival at Neurofit animal facility, they were housed one per cage and maintained in a room with controlled temperature (21-22° C.) and a reversed light-dark cycle (12 h/12 h; lights on: 17:30-05:30; lights off: 05:30-17:30) with food and water available ad libitum.
Female Wistar rats of 17 days gestation were killed by cervical dislocation and the fetuses were removed from the uterus. Their brains were placed in ice-cold medium of Leibovitz (L15, Gibco, Fisher bioblock, France). Cortices were dissected and meninges were carefully removed. The cortical neurons were dissociated by trypsinization for 30 min at 37° C. (trypsin-EDTA, Gibco) in presence of 0.1 mg/ml DNAse I (Roche, France). The reaction was stopped by addition of Dulbecco's Modified Eagle Medium (DMEM; Gibco) with 10% of fetal bovine serum (FBS; Gibco). The suspension was triturated with a 10-ml pipette and using a needle syringe 21G and centrifuged at 350×g for 10 min at room temperature. The pellet of dissociated cells was resuspended in a medium consisting of Neurobasal (Gibco) supplemented with 2% B27 supplement (Gibco), 0.5 mM L-Glutamine (Gibco), an antibiotic-antimicotic mixture. Viable cells were counted in a Neubauer cytometer using the trypan blue exclusion test (Sigma). Cells were seeded at a density of 10000 cells per well in 96-well plate (Costar) precoated with poly-L-lysine. Test compound at different concentrations were added to the cultures. Donepezil (positive control) was tested at 250 nM.
After 72 h (3 days) of plating, cultures were fixed with paraformaldehyde in PBS (4%, Sigma) for 30 min at 4° C. Then, cells were successively permeabilized with 0.1% Triton X100 for 30 min, saturated with PBS containing 3% of BSA and were incubated 1 h with anti-beta III tubulin antibody (Sigma) at 1/10 000 in PBS containing 0.5% of BSA. Cells were washed three times with PBS containing 0.5% of BSA, and they were incubated 1 h with goat anti-mouse antibody coupled with AF488 (Invitrogen A 11001) diluted at 1/1000 in PBS containing 0.5% of BSA. Finally, nuclei were staining with DAPI 1 mg/ml at 1/1000 in PBS containing 0.5% of BSA. After rinsing with PBS, the plate was filmed and neurite networks were examined and analyzed using High-Content Screening (CellInsight, Thermo Scientific). The average number of neurites per neuron and the average total length of neurites per neuron were the main parameters analyzed. Analysis of data was performed using analysis of variance (ANOVA). The Fisher's Protected Least Significant Difference test was used for multiple comparisons. A p value≤0.05 was considered significant. The software used is StatView 5.0 from SAS Institut.

For test [3], the target named is T1, 5-HT2A. The experiment in a line: Serotonin 5-HT2A in vitro cellular IPOne antagonism assay. In kind it is cell-based. More on the design: host or cells: CHO-K1. The following applies: CHO-K1 cells, antagonist mode, reference agonist a-Me-5HT. Here is the method:
Serotonin 5-HT2A and 5-HT2C In Vitro Cellular IPOne Antagonism Assay. The 5-HT2A IPOne HTRF assay was performed at Epics Therapeutics S.A. (Belgium, FAST-0505I) in antagonism mode using conventional methods. Briefly, CHO-K1 cells expressing human recombinant 5-HT2A receptor grown to mid-log phase in culture media without antibiotics were detached with PBS-EDTA, centrifuged, and resuspended in medium without antibiotics buffer. 20,000 cells were distributed in a 96 well plate and incubated overnight at 37° C. with 5% CO2.
For antagonist testing, a reference agonist a-Me-5HT was added and fluorescence signal monitored for several minutes, followed by addition of 20 μl of assay buffer plus 20 μl of test compound or reference antagonist ketanserin, in each well. The plate was incubated for 60 min. at 37° C. with 5% CO2.
(§1) After addition of the lysis buffer containing IP1-d2 and anti-IP1 cryptate detection reagents, plates were incubated 1-hour at room temperature, and fluorescence ratios were measured according to the manufacturer specification, with the HTRF kit.

The target of test [4] is T1, 5-HT2A. The test is described as follows: Serotonin 5-HT2A in vitro cellular IPOne agonism assay (HTRF). More on the design: host or cells: CHO-K1. In kind it is cell-based. The following applies: CHO-K1 cells, agonist mode. On the procedure: Serotonin 5-HT2A In Vitro Cellular IPOne Agonism Assay. The 5-HT2A IPOne HTRF assay was performed at Epics Therapeutics S.A. (Belgium, FAST-0505I) using conventional methods. Briefly, CHO-K1 cells expressing human recombinant 5-HT2A receptor grown to mid-log phase in culture media without antibiotics were detached with PBS-EDTA, centrifuged, and resuspended in medium without antibiotics buffer. 20,000 cells were distributed in a 96 well plate and incubated overnight at 37° C. with 5% CO2.
For agonist testing, the medium was removed and 20 μl of assay buffer plus 20 μl of test compound or reference agonist are added in each well. The plate was incubated for 60 min. at 37° C. with 5% CO2.
as §1

T1 sequence (P28223 whole entry): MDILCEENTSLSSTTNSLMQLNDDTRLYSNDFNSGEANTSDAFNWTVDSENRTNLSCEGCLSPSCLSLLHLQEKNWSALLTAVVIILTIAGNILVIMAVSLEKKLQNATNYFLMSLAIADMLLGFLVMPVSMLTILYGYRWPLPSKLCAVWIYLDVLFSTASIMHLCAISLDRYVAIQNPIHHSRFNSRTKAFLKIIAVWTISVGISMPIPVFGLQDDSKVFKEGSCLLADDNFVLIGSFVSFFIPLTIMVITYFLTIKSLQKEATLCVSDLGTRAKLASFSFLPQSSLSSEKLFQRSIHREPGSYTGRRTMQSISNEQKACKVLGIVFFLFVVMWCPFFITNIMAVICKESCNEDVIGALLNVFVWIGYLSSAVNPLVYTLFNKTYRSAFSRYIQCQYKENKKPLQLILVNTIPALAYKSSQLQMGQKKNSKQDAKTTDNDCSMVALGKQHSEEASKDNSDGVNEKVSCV

In test [1], `CN1CCc2[nH]c3cc(OCc4ccc(F)cc4)ccc3c2CC1` [Compound 8, 8-((4-fluorobenzyl)oxy)-3-methyl-1,2,3,4,5,6-hexahydroazepino[4,5-b]indole] yielded an IC50 of 101 to 1000 nM. Besides, in test [2], the “Increase in Neurite Branching” value is given as “A”, the “Increase in Neurite Length” value is on record as “A” and the “Increase in Neurite Number” value is “A”. Besides, the IC50 in test [3] was 10 to 100 nM. The molecule further registered an EC50 in test [4] of over 10000 nM.

Consider `Cn1c2c(c3ccc(OCc4ccc(F)cc4)cc31)CCNCC2` [Compound 9, 8-((4-fluorobenzyl)oxy)-6-methyl-1,2,3,4,5,6-hexahydroazepino[4,5-b]indole], for which the concentration for half-maximal inhibition (IC50) in test [1] fell in the range of 101 to 1000 nM. Besides, in test [2], the “Increase in Neurite Branching” value was “B”, the “Increase in Neurite Length” value is reported as “B” and the “Increase in Neurite Number” value is recorded as “B”. The same molecule gave an IC50 in test [3] of 101 to 1000 nM. Besides, in test [4], the EC50 was over 10000 nM.

In the case of `CN1CCc2c(n(C)c3cc(OCc4ccc(F)cc4)ccc23)CC1` [Compound 10, 8-((4-fluorobenzyl)oxy)-3,6-dimethyl-1,2,3,4,5,6-hexahydroazepino[4,5-b]indole], the 50% inhibitory concentration (IC50) lay in the range of 101 to 1000 nM in test [1] and 10 to 100 nM in test [3]. In test [2], the “Increase in Neurite Length” value is recorded as “B”. In addition, the 50% effective concentration (EC50) in test [4] is over 10000 nM.

Turning to `CN1CCc2[nH]c3cc(Oc4ccccc4)ccc3c2CC1` [Compound 12, 3-methyl-8-phenoxy-1,2,3,4,5,6-hexahydroazepino[4,5-b]indole], the IC50 in test [1] was in the range of 101 to 1000 nM. Moreover, in test [2], the “Increase in Neurite Branching” value is “A”, the “Increase in Neurite Length” value is given as “A” and the “Increase in Neurite Number” value is “A”. Also, the half-inhibitory concentration (IC50) in test [3] was in the range of 101 to 1000 nM. Moreover, the EC50 in test [4] was over 10000 nM.

In test [1], `CN1CCc2c(n(C)c3cc(Oc4ccccc4)ccc23)CC1` [Compound 14, 3,6-dimethyl-8-phenoxy-1,2,3,4,5,6-hexahydroazepino[4,5-b]indole] had a half-inhibitory concentration (IC50) of 1000 to 10000 nM. Besides, in test [2], the “Increase in Neurite Branching” value was “B”, the “Increase in Neurite Length” value was “A” and the “Increase in Neurite Number” value is given as “B”. In test [3], this molecule had an IC50 of 1000 to 10000 nM. In test [4], this molecule came in with a concentration for a half-maximal effect (EC50) of over 10000 nM.

`CN1CCc2[nH]c3cc(Oc4ccc(F)cc4)ccc3c2CC1` [Compound 16, 8-(4-fluorophenoxy)-3-methyl-1,2,3,4,5,6-hexahydroazepino[4,5-b]indole]: the half-inhibitory concentration (IC50) in test [1] was 101 to 1000 nM. For the same molecule, in test [2], the “Increase in Neurite Branching” value is given as “A”, the “Increase in Neurite Length” value is “A” and the “Increase in Neurite Number” value is given as “B”. The molecule also came in with an IC50 in test [3] of 101 to 1000 nM. In test [4], the half-maximal effective concentration (EC50) is over 10000 nM.

`CN1CCc2c(n(C)c3cc(Oc4ccc(F)cc4)ccc23)CC1` [Compound 18, 8-(4-fluorophenoxy)-3,6-dimethyl-1,2,3,4,5,6-hexahydroazepino[4,5-b]indole] gave an IC50 in test [1] of 101 to 1000 nM. Moreover, in test [2], the “Increase in Neurite Branching” value is listed as “A”, the “Increase in Neurite Length” value is “A” and the “Increase in Neurite Number” value is on record as “A”. Besides, the 50% inhibitory concentration (IC50) in test [3] fell in the range of 101 to 1000 nM. In test [4], the EC50 is over 10000 nM.

In turn, `Cn1c2c(c3c(OCc4ccccc4)cccc31)CCNCC2` [Compound 19, 10-(benzyloxy)-6-methyl-1,2,3,4,5,6-hexahydroazepino[4,5-b]indole] yielded an IC50 in test [1] of 101 to 1000 nM. In test [2], the “Increase in Neurite Branching” value was “B”, the “Increase in Neurite Length” value is given as “B” and the “Increase in Neurite Number” value is “B”. For the same molecule, the IC50 in test [3] lay within 101 to 1000 nM. In test [4], this molecule came in with an EC50 of 1000 to 10000 nM.

The molecule `CN1CCc2[nH]c3cccc(Oc4ccc(F)cc4)c3c2CC1` [Compound 22, 10-(4-fluorophenoxy)-3-methyl-1,2,3,4,5,6-hexahydroazepino[4,5-b]indole] gave a half-maximal inhibitory concentration (IC50) in test [1] of 10 to 100 nM. Further, in test [2], the “Increase in Neurite Branching” value is listed as “A”, the “Increase in Neurite Length” value is listed as “A” and the “Increase in Neurite Number” value is on record as “A”. Also, in test [3], the IC50 was 10 to 100 nM. The molecule further came in with a concentration for a half-maximal effect (EC50) in test [4] of over 10000 nM.

`CN1CCc2c(n(C)c3cccc(Oc4ccc(F)cc4)c23)CC1` [Compound 24, 10-(4-fluorophenoxy)-3,6-dimethyl-1,2,3,4,5,6-hexahydroazepino[4,5-b]indole] yielded an IC50 in test [1] of 10 to 100 nM. In addition, in test [2], the “Increase in Neurite Branching” value is “B”, the “Increase in Neurite Length” value was “A” and the “Increase in Neurite Number” value is “B”. The molecule also displayed an IC50 in test [3] of 10 to 100 nM. Besides, in test [4], the concentration giving a half-maximal response (EC50) is over 10000 nM.

As for `c1ccc(COc2ccc3[nH]c4c(c3c2)CCNCC4)cc1` [Compound 25, 9-(benzyloxy)-1,2,3,4,5,6-hexahydroazepino[4,5-b]indole], the concentration for half-maximal inhibition (IC50) in test [1] and in test [3] was 101 to 1000 nM throughout. For the same molecule, in test [2], the “Increase in Neurite Length” value is given as “A”. Besides, the half-maximal effective concentration (EC50) in test [4] was over 10000 nM.

`CN1CCc2[nH]c3ccc(OCc4ccccc4)cc3c2CC1` [Compound 26, 9-(benzyloxy)-3-methyl-1,2,3,4,5,6-hexahydroazepino[4,5-b]indole] returned a half-inhibitory concentration (IC50) in test [1] of 101 to 1000 nM. Also, in test [2], the “Increase in Neurite Branching” value is “A”, the “Increase in Neurite Length” value was “A” and the “Increase in Neurite Number” value is reported as “A”. Besides, the IC50 in test [3] is 101 to 1000 nM. In addition, the half-maximal effective concentration (EC50) in test [4] is over 10000 nM.

The molecule `CN1CCc2[nH]c3c(OCc4ccccc4)cccc3c2CC1` [Compound 28, 7-(benzyloxy)-3-methyl-1,2,3,4,5,6-hexahydroazepino[4,5-b]indole] had a concentration for half-maximal inhibition (IC50) in test [1] of 10 to 100 nM. In test [2], the “Increase in Neurite Branching” value is “A”, the “Increase in Neurite Length” value is “A” and the “Increase in Neurite Number” value was “A”. The same molecule showed an IC50 in test [3] of 10 to 100 nM. In test [4], this molecule returned a concentration for a half-maximal effect (EC50) of over 10000 nM.
